{"source": "paper PMC4465889", "about": "(Biochemical and biophysical research communications, 2014)", "key": {"[1]": {"target": "L192A mutant human CB2 receptor (Homo sapiens, UniProt P34972, L192A)", "sequence (P34972 whole entry L192A)": "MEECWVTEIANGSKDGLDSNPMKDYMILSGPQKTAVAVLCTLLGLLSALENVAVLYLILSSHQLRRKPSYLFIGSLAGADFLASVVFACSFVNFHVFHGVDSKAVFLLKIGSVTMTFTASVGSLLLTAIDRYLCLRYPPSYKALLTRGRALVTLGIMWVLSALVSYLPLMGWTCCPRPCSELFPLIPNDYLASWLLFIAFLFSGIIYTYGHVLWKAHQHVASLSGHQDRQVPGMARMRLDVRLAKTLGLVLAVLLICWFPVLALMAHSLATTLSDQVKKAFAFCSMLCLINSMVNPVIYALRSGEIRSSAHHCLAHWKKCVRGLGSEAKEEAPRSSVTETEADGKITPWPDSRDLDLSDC", "format": "binding"}, "[2]": {"target": "V113L mutant human CB2 receptor (Homo sapiens, UniProt P34972, V113L)", "sequence (P34972 whole entry V113L)": "as the sequence (P34972 whole entry L192A) above, with V113L, A192L counted along it", "format": "binding"}}}
{"substance": "SR144528", "values": [{"measurement": "Reduction of binding compared to wild type", "setting": "[1]; L192A mutant vs wild type CB2", "value": 5, "unit": "fold"}, {"measurement": "Effect of substitution on CB2 binding affinity compared to the wild-type", "setting": "[1]; L192A mutant vs wild type CB2, in words", "value": "slightly reduced"}, {"measurement": "Reduction of binding compared to wild type", "setting": "[2]; V113L mutant vs wild type CB2", "value": 6, "unit": "fold"}, {"measurement": "Effect of substitution on CB2 binding affinity compared to the wild-type", "setting": "[2]; V113L mutant vs wild type CB2, in words", "value": "slight reduction"}]}
